In brackets after ≈: the same amount, converted by molar mass. Where two headings read alike, the source gives them in different places.

One assay has as its system lymphoma L5178Y. Further details: method as in PMID 19778087. The following applies: cited from earlier work.
The subject of a further assay is PC 12. More on the design: method as in PMID 19778087. The following applies: cited from earlier work.
The subject of assay [1] is H9c2, C6, PC-3, Raji and MCF-7 cells. As to the kind of experiment: MTT cytotoxicity, summary statements over several cell lines. Format: cell-based. The following applies: 24 h, range over both compounds and three cell lines. As to the method: (§1) The in vitro cytotoxicity of individual substances was determined by the MTT method (3-(4,5-dimethylthiazol-2-yl)-2,5-diphenyltetrazolium bromide), according to the manufacturer’s instructions (Sigma-Aldrich, St. Louis, MO, USA).
(§2) Investigated compounds were dissolved in DMSO at a concentration of 10 mM.
(§3) The cells were treated with the investigated compounds for 24 h or 48 h, and MTT reagent was added to each well of the plate. The vehicle with DMSO at a concentration of 1% was used as a control. The absorbance of formed formazan was measured at λ = 570 nm using a Multiskan FC microplate photometer (Thermo Scientific, Waltham, MA, USA) and expressed in optical units (o.u.). The results are presented as % of viable cells relative to vehicle, and 50% inhibition concentration of cell viability (IC50) was calculated.

In a further assay the test system is human lymphoma Raji. Put plainly: MTT cytotoxicity assay, Raji cells. Format: cell-based. The following applies: Homo sapiens, Raji, 24 h, 24 h incubation, mean ± SEM. As to the method:
(§4) PC-3, MCF-7, C6, and H9c2 cells were cultured in DMEM medium (Biolot, St. Petersburg, Russia) containing 10% fetal bovine serum (Biolot, St. Petersburg, Russia) and 1% penicillin/streptomycin (Biolot, St. Petersburg, Russia) at 37 °C in a humidified atmosphere with 5% (v/v) CO2. The Raji cells were cultured in RPMI-1640 medium (Biolot, St. Petersburg, Russia) containing 10% fetal bovine serum (Biolot, St. Petersburg, Russia) and 1% penicillin/streptomycin (Biolot, St. Petersburg, Russia) under the same conditions.
(§5) Initially, cells were incubated in culture flasks until subconfluent (~80%). For testing, the cells were seeded at concentrations of 5 × 10^3 cells/well (PC-3, MCF-7, Raji, and C6 cells) or 3 × 10^3 cells/well (H9c2 cells), and experiments were started after 24 h.
as §1, §2, §3

Assay [2] relates to MCF-7 cells. As to the kind of experiment: Apoptosis profile by flow cytometry (Muse annexin V and dead cell kit). The following applies: 10 µM, 48 h. The format is cell-based, human. As to the method:
After incubation, culture media were collected; then, cells were washed twice with cold PBS and incubated with trypsin-EDTA solution for 1 min. The cell suspension was washed twice by centrifugated at 250× g for 4 min with cold PBS and used for apoptosis detection by a Muse® annexin V and dead cell kit in accordance with manufacturer’s instructions (Luminex, Austin, TX, USA). Fluorescence was measured with a Muse® cell analyzer (Luminex, Austin, TX, USA), and data were processed by Muse 1.5 analysis software (Luminex, Austin, TX, USA). The proportion of apoptotic cells was expressed as a percentage.

The subject of assay [3] is human breast cancer MCF-7. Put plainly: MTT cytotoxicity assay, MCF-7 cells. The format is cell-based. As to the method:
as §4, §5, §1, §2, §3

Assay [4] deals with MCF-7 cells. As to the kind of experiment: Cell cycle analysis by flow cytometry (propidium iodide). Format: cell-based, human. The following applies: 10 µM, 48 h. As to the method:
After incubation, cells were trypsinized, harvested, washed with PBS, and fixed with ice-cold 70% ethanol in a dropwise manner prior to storage at −20 °C overnight. The cells were then washed with PBS, incubated with 200 μg/mL RNAse (PanReac, AppliChem, Darmstadt, Germany) and 20 μg/mL of propidium iodide (Sigma-Aldrich, St. Louis, MO, USA) for 30 min at 37 °C, and the DNA content was analyzed with a Muse® cell analyzer (Luminex, Austin, TX, USA). The data were processed by Muse 1.5 analysis software (Luminex, Austin, TX, USA). The proportion of cells in each phase of the cell cycle was expressed as a percentage.

The target of a further assay is PTP1B. More on the design: method as in earlier work. The following applies: cell-free assay; cited from earlier work.
Assay [5] deals with normal rat cardiomyocyte H9c2 cell line. Put plainly: MTT cytotoxicity assay, H9c2 cells. Format: cell-based. The following applies: Rattus norvegicus, H9c2, 24 h, 24 h incubation, mean ± SEM. As to the method: as §4, §5, §1, §2, §3
Assay [6] concerns human lung cancer A549 cells. Further details: method as in PMID 19769341. The following applies: cited from earlier work.
For the next assay, the system named is rat glioblastoma C6. Put plainly: MTT cytotoxicity assay, C6 cells. The following applies: Rattus norvegicus, C6, 24 h, 24 h incubation, mean ± SEM. Format: cell-based. As to the method: as §4, §5, §1, §2, §3
Assay [7] relates to MCF-7 cells. As to the kind of experiment: Total caspase activity by flow cytometry (Muse multicaspase kit). Format: cell-based, human. The following applies: 10 µM, 48 h; control 4.7%. As to the method:
The influence of the compounds on the percentage of live MCF-7 cells (caspase−/7-AAD−), live MCF-7 cells with caspase activity (caspase+/7-AAD−), dead MCF-7 cells with caspase activity […] MCF-7 cells (caspase−/7-AAD+) was measured by a Muse® multicaspase kit (Luminex, Austin, TX, USA). The kit utilizes a VAD-peptide derivatized with a fluorescent group called fluorescent-labeled inhibitor of caspases (FLICA). The peptide binds to activated caspases, resulting in a fluorescent signal proportional to the number of active caspases in the cell. Fluorescent dye 7-AAD was used as a dead cell marker in this assay.
After incubation, culture media were collected, and cells were washed twice with cold PBS and incubated in trypsin-EDTA solution for 1 min. The cell suspension was washed twice by centrifugation at 250× g for 4 min with cold PBS and then used for caspase activity detection by a Muse® multicaspase kit (caspases 1, 3, 4, 5, 6, 7, 8, and 9) in accordance with manufacturer’s instructions (Luminex, Austin, TX, USA). Fluorescence was measured with a Muse® cell analyzer (Luminex, Austin, TX, USA), and data were processed by Muse 1.5 analysis software (Luminex, Austin, TX, USA).

In the next assay the target is SHP2. More on the design: method as in earlier work. The following applies: cell-free assay; cited from earlier work.
The subject of assay [8] is human leukemia HL-60 cells. More on the design: method as in PMID 19769341. The following applies: read-out: IC50, HL-60 cell viability; cited from earlier work.
The next assay deals with HeLa cells. More on the design: method as in PMID 19778087. The following applies: cited from earlier work.
Assay [9] has as its system human prostate cancer PC-3. As to the kind of experiment: MTT cytotoxicity assay, PC-3 cells. The format is cell-based. The following applies: Homo sapiens, PC-3, 24 h, 24 h incubation, mean ± SEM. As to the method: as §4, §5, §1, §2, §3

In the case of `CC1(C)CCC[C@@]2(C)[C@H]1[C@H](OC(=O)/C=C/C=C/C=O)C=C1COC(=O)[C@@]12O` [Compound 9, ustusolate E], the IC50 in the assay with lymphoma L5178Y was 1.6 µM; with PC 12, 19.3 µM; in [1], 54.3 to 88.1 µM; with human lymphoma Raji it was 88.1 ± 1.3 µM; in [3] (48 h incubation, concentrations up to 10 µM, read-out: IC50, MCF-7 cell viability, prolonged incubation), 10.1 ± 0.5 µM; in assay [3] (Homo sapiens, MCF7, 24 h, 24 h incubation, mean ± SEM, read-out: IC50, MCF-7), 57.8 ± 0.5 µM. The IC50 in assay [3] (Homo sapiens, MCF7, 48 h, 48 h incubation, concentrations up to 10 µM, read-out: IC50, MCF-7 cell viability, prolonged incubation) was 10 µM; in assay [5] it was 66.9 ± 3 µM; in the assay with rat glioblastoma C6 it was 54.3 ± 3.3 µM; in [8] it was 8 µM; in the assay on HeLa cells, 15.8 µM; in assay [9], 50.1 ± 1.8 µM. Also, in the assay with MCF-7 cells [2] (control 1.7%), the “amount of apoptotic cells (early and late)” value is reported as 6.8%. Further, in the assay on MCF-7 cells [2] (control 98.6%), the “amount of living cells” value is given as 94.1%. For the same molecule, in assay [3] (10 µM, 48 h), the “decrease in MCF-7 cell viability” value is around 50%. In addition, in the assay with MCF-7 cells [4] (control 5.4%), the subG0 cells turned out to be 24.7%. In addition, in the assay on MCF-7 cells [4] (relative to control), the “decrease in the percentage of cells in the S phase” value is recorded as 41.2%. Further, the “increase of the percentage of cells in the G2/M phase” value in the assay on MCF-7 cells [4] (relative to control) turned out to be 67.3%. In addition, the “reduction of the percentage of cells in the G0/G1 phase” value in the assay on MCF-7 cells [4] (relative to control) was 33.3%. For the same molecule, in the assay on MCF-7 cells [4] (versus control), the “increase of the subG0 population of cells” value amounted to 4.6 times. The “IC50, PTP1B enzyme activity” value on PTP1B is listed as 50 µg/mL (≈ 134 µM). For the same molecule, the “toxicity against A549 cells” value in [6] was “nontoxic”. In addition, the “percentage of cells exhibiting caspase activity (living and 7-AAD-labeled)” value with MCF-7 cells [7] is 12.4%. Besides, the “IC50, SHP2 enzyme activity” value on SHP2 is given as 40 µg/mL (≈ 107 µM).

The record behind these values is article PMC9504587, “Cytotoxic Drimane-Type Sesquiterpenes from Co-Culture of the Marine-Derived Fungi Aspergillus carneus KMM 4638 and Beauveria felina (=Isaria felina) KMM 4639” (Marine Drugs, 2022).
